Reference: US4753881A, “Purified enzyme and process therefor” (Eli Lilly and Company, priority 1986, dated 1988)

How the values were obtained:
[1] = molecular target: T1, deacetoxycephalosporin C synthetase (expandase) (Hapsidospora chrysogena, UniProt P11935); assay: Enzyme activity assay (HPLC): expandase-catalyzed reaction, DAOC plus DAC from penicillin N; format: biochemical, Cephalosporium acremonium; settings: for Maximal reactivation/stimulation of expandase activity, initial to final activity: DTT 1.0 mM, ascorbate 0.25 mM, ATP 0.05 mM, purified enzyme (step 3); for Effect on expandase function of the purified enzyme: present in the incubation mixture
T1 construct: prepared by sonicating fresh cell suspensions of Cephalosporium acremonium in buffer at pH 7-8; endogenous in cells; host or cells: Cephalosporium acremonium cells (crude cell extract, then chromatographic purification)
T1 sequence (P11935 1-332): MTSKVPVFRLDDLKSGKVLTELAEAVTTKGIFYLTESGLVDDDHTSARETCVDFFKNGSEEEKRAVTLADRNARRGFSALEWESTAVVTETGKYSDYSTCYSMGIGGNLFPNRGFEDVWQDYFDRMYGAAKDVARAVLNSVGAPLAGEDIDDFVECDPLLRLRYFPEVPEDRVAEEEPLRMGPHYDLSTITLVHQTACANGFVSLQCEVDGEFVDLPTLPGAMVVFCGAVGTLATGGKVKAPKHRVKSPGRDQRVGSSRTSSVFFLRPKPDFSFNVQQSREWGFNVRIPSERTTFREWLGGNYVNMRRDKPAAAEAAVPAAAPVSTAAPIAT
Source text: (§1) The activity of the enzyme, which is a reflection of its purity, is expressed herein in units (U) of activity. One unit of expandase activity is defined as the amount of the enzyme required to cause formation of 1 μmole of DAOC plus DAC per minute from penicillin N. One unit of hydroxylase activity is defined as the amount of enzyme required to cause formation of 1 μmole of DAC per minute from DAOC.
(§2) The purity of the enzyme and the extent of purification during the course of the process can be measured by determining the expandase and hydroxylase activities of the chromatographic fractions via high performance liquid chromatography (HPLC) and by analyzing protein bands of chromatographic fractions via SDS-PAGE. The expandase-catalyzed reaction is conducted for 15 minutes at 30° C. with 0.28 mM penicillin N, 0.60 mM α-ketoglutarate (αKG), 0.06 mM ferrous sulfate, […], 1.00 mM dithiothreitol, 0.05 mM ATP and 0.0003-0.003 units of the enzyme in 1 ml of 50 mM Tris-HCl, pH 7.5. The hydroxylase-catalyzedreaction is conducted at 36° C. in the same medium with deacetoxycephalosporin C at a concentration of 0.05 mM instead of penicillin N.
(§3) The enzymatic reactions were interrupted by the addition of 1 ml of ethyl alcohol. The precipitate is separated by centrifugation at 4,000×g for 5 minutes and the supernatant containing the enzyme reaction products assayed by HPLC as follows. The expandase activity is determined by monitoring formation of both DAOC and DAC from penicillin N because of the apparent bifunctionality of the enzyme. The hydroxylase activity is determined by monitoring the formation of DAC from DAOC.
(§4) Aliquots (20 to 100 μl ) of the supernatant solutions are assayed for DAOC and DAC by HPLC using external standards.
(§5) A preferred HPLC system comprises the components: Model 721 system controller, Model 730 data module, Model 510EF pumps, Model 710B Waters Intelligent Sample Processor and a Lambda-Max Model 481 LC spectrophotometer (Waters Assoc., Milford, Mass.). DAC and DAOC are preferably separated by a radially packed compressed μBondapak-NH4column (0.8×10 cm) (Waters Assoc.) with a mobile phase of 2% acetic acid-0-4% methyl alcohol-6-7% acetonitrile-87-92% water; pH 3.8, a flow rate of 1.5-2.0 ml/min. and detection at 260 nm (cephalosporin chromophore). The assays are reproducible with 2% deviations for duplicate analyses of both the expandase and the hydroxylase catalyzed reactions.
For expandase assays, quantitation for DAC (in addition to that of DAOC) is corrected for penicillin N due to their coelution.

[2] = molecular target: T2, hydroxylase activity of the expandase-hydroxylase enzyme (Hapsidospora chrysogena, UniProt P11935); assay: Enzyme activity assay (HPLC): hydroxylase-catalyzed reaction, DAC from DAOC; format: biochemical, Cephalosporium acremonium; settings: for Maximal reactivation/stimulation of hydroxylase activity, initial to final activity: DTT 1.0 mM, ascorbate 0.25 mM, ATP 0.05 mM, purified enzyme (step 3); for Effect on hydroxylase function of the purified enzyme: present in the incubation mixture
T2 construct: prepared by sonicating fresh cell suspensions of Cephalosporium acremonium in buffer at pH 7-8; endogenous in cells; host or cells: Cephalosporium acremonium cells (crude cell extract, then chromatographic purification)
T2 sequence (P11935 1-332): T1 sequence (P11935 1-332)
Source text: as §1, §2, §3, §4
as §5, with “reactions. […]” for “reactions.”

Row | SMILES | Reactivation of expandase activity [1] | Maximal reactivation/stimulation of expandase activity, initial to final activity [1] [U × 10^-3] | Effect on expandase function of the purified enzyme [1] | Reactivation of hydroxylase activity [2] | Maximal reactivation/stimulation of hydroxylase activity, initial to final activity [2] [U × 10^-3] | Effect on hydroxylase function of the purified enzyme [2]
1 | O[C@H](CS)[C@H](O)CS (racemic) [DTT, dithiothreitol] | reversibly reactivated | 0 to 50 | stimulated | reversibly reactivated | 0 to 0.23 | stimulated
2 | O=C(O)c1cc(SSc2ccc([N+](=O)[O-])c(C(=O)O)c2)ccc1[N+](=O)[O-] [5,5'-dithiobis-2-nitrobenzoic acid] | – | – | inhibited | – | – | inhibited
3 | Nc1ncnc2c1ncn2[C@@H]1O[C@H](COP(=O)(O)OP(=O)(O)OP(=O)(O)O)[C@@H](O)[C@H]1O [ATP] | – | 38 to 52 | stimulated | – | 0.57 to 0.61 | stimulated
4 | O=C1O[C@H]([C@@H](O)CO)C(O)=C1O [Ascorbate] | reversibly reactivated | 0 to 90 | stimulated | reversibly reactivated | 0 to 0.81 | stimulated
5 | [Zn+2] [zinc ion] | – | – | inhibited | – | – | inhibited
